{"source": "the METLIN SMRT retention time set (Domingo-Almenara et al. 2019)", "experiment": "gradient 5% acetonitrile 3 min, to 50% in 2 min, to 85% in 15 min, held 3 min, 100 µL/min", "conditions": "column: Zorbax Extend-C18 2.1 x 50 mm; eluents: water / acetonitrile, 0.1% formic acid", "method_in_brief": "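Pure standards were run in mixtures of ~100 molecules by HPLC coupled to a quadrupole time-of-flight mass spectrometer. The column was a Zorbax Extend-C18 (2.1 × 50 mm, 1.8 μm) at 100 μL/min, with water and acetonitrile each containing 0.1% formic acid, in positive and negative ionization mode. Dead and dwell volumes were 40 μL and 900 μL. Retention time was taken from computationally picked adduct peaks, each manually inspected, with data collected over 3 months.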"}
{"smiles": "CCC(C(=O)Nc1ccc2ncnc(N3CCCC3)c2c1)c1ccccc1", "note": "(stereo unspecified)", "values": [{"measurement": "RP-LC retention time", "value": 703, "unit": "s"}]}
{"smiles": "Cc1ccc(S(=O)(=O)N2C[C@@H]3C[C@H](NC(=O)c4cccs4)[C@H]2C3)cc1Cl", "values": [{"measurement": "RP-LC retention time", "value": 992, "unit": "s"}]}
{"smiles": "CCOC(=O)c1cccc(Nc2c(-c3ccc4c(c3)OCO4)nc3cnccn23)c1", "values": [{"measurement": "RP-LC retention time", "value": 834, "unit": "s"}]}
{"smiles": "CCn1cc(-c2nc(CC(=O)NCc3ccccc3Cl)cs2)c2cccnc21", "values": [{"measurement": "RP-LC retention time", "value": 924, "unit": "s"}]}
{"smiles": "COc1ccc(-c2cc(C(=O)N3CCN(c4ccc(N5CCOCC5)nn4)CC3)[nH]n2)cc1", "values": [{"measurement": "RP-LC retention time", "value": 625, "unit": "s"}]}
{"smiles": "CC(C)c1ccc(NC(=O)C2CCCN(S(=O)(=O)c3c[nH]c(C(=O)N4CCCC4)c3)C2)cc1", "note": "(stereo unspecified)", "values": [{"measurement": "RP-LC retention time", "value": 939, "unit": "s"}]}
{"smiles": "O=C([C@@H]1C[C@H](Oc2cccnc2)CN1C(=O)CCC1CCCC1)N1CCCC1", "values": [{"measurement": "RP-LC retention time", "value": 640, "unit": "s"}]}
{"smiles": "Nc1cc(C2CCN(C(=O)/C=C/c3ccccc3)CC2)no1", "values": [{"measurement": "RP-LC retention time", "value": 724, "unit": "s"}]}
{"smiles": "COCCn1cc(CCNC(=O)Nc2cccc(F)c2C)c2cccnc21", "values": [{"measurement": "RP-LC retention time", "value": 774, "unit": "s"}]}
{"smiles": "CCn1c(C2CCN(S(=O)(=O)c3cccc(C)c3)C2)nc2cccnc21", "note": "(stereo unspecified)", "values": [{"measurement": "RP-LC retention time", "value": 771, "unit": "s"}]}
{"smiles": "O=C(NCCc1ccc(Cl)cc1)c1csc(C(=O)N2CCCC2)n1", "values": [{"measurement": "RP-LC retention time", "value": 894, "unit": "s"}]}
{"smiles": "O=C([C@@H]1C[C@H](Oc2ccccc2)CN1C(=O)CCC1CCCC1)N1CCCC1", "values": [{"measurement": "RP-LC retention time", "value": 922, "unit": "s"}]}
{"smiles": "CCCN1CCN(c2ccc(NC(=O)C(C)(C)C)c(C(=O)O)c2)CC1", "values": [{"measurement": "RP-LC retention time", "value": 611, "unit": "s"}]}
{"smiles": "O=C(NCCCN1CCCC1)C1CCN(c2nnc3ccc(Cl)cn23)CC1", "values": [{"measurement": "RP-LC retention time", "value": 556, "unit": "s"}]}
{"smiles": "Cc1ccc(NC(=O)Cn2nc(C)cc2C(=O)Nc2cc(C)ccc2C)cc1", "values": [{"measurement": "RP-LC retention time", "value": 981, "unit": "s"}]}
{"smiles": "O=C(Nc1ccccc1)N1CCOC(CN(CC2CCCO2)C(=O)c2ccc3c(c2)OCO3)C1", "note": "(stereo unspecified)", "values": [{"measurement": "RP-LC retention time", "value": 738, "unit": "s"}]}
{"smiles": "COc1ccc2nc(-c3ccc(NS(=O)(=O)c4ccccc4C(F)(F)F)cc3)cn2n1", "values": [{"measurement": "RP-LC retention time", "value": 792, "unit": "s"}]}
{"smiles": "Cc1cc(C)cc(NC(=O)C2CCCN2S(=O)(=O)c2cc3c(cc2C)NC(=O)C(C)O3)c1", "note": "(stereo unspecified)", "values": [{"measurement": "RP-LC retention time", "value": 852, "unit": "s"}]}
{"smiles": "CCCN(CC1CCOC1)C(=O)Nc1c(C)cccc1C", "note": "(stereo unspecified)", "values": [{"measurement": "RP-LC retention time", "value": 791, "unit": "s"}]}
{"smiles": "O=C(CNC(=O)c1c[nH]c2ccccc12)Nc1cc(Cl)ccc1O", "values": [{"measurement": "RP-LC retention time", "value": 695, "unit": "s"}]}
{"smiles": "Cc1ccsc1CN1CCn2nnc(CCC(=O)N3CCOCC3)c2C1", "values": [{"measurement": "RP-LC retention time", "value": 628, "unit": "s"}]}
{"smiles": "c1ccc(CN2CCN(c3c4c(nc5nc(-c6ccccc6)nn35)CCCC4)CC2)cc1", "values": [{"measurement": "RP-LC retention time", "value": 668, "unit": "s"}]}
{"smiles": "Cc1ccc(CS(=O)(=O)N2CCC(CN3CCCC(C)C3)CC2)cc1C", "note": "(stereo unspecified)", "values": [{"measurement": "RP-LC retention time", "value": 717, "unit": "s"}]}
{"smiles": "CSc1cccc(NC(=O)N2CCC3(CC2)NC(=O)c2ccccc2O3)c1", "values": [{"measurement": "RP-LC retention time", "value": 793, "unit": "s"}]}
{"smiles": "COc1cccc(NC(=O)Nc2c(-c3ccsc3)nc3ccccn23)c1", "values": [{"measurement": "RP-LC retention time", "value": 639, "unit": "s"}]}
{"smiles": "CCCN1C(=O)CN(S(=O)(=O)c2ccc(C)cc2)CC1(C)C(=O)NCc1ccccc1", "note": "(stereo unspecified)", "values": [{"measurement": "RP-LC retention time", "value": 864, "unit": "s"}]}
{"smiles": "Cc1ccc(N(C)C(=O)CN2C(=O)CCCc3cc(S(=O)(=O)N4CCCCC4)ccc32)cc1", "values": [{"measurement": "RP-LC retention time", "value": 976, "unit": "s"}]}
{"smiles": "Cc1ccc(CNC(=O)c2ccc(NC(=O)C3CCC3)cc2N2CCOCC2)o1", "values": [{"measurement": "RP-LC retention time", "value": 818, "unit": "s"}]}
{"smiles": "O=C(Nc1ccccc1Br)N1CCc2nc(-c3ccc(F)cc3)ncc2C1", "values": [{"measurement": "RP-LC retention time", "value": 1020, "unit": "s"}]}
{"smiles": "CSCc1nnc(NC(=O)c2ccc(S(=O)(=O)N3CC(C)OC(C)C3)cc2)o1", "note": "(stereo unspecified)", "values": [{"measurement": "RP-LC retention time", "value": 704, "unit": "s"}]}
{"smiles": "Cc1nc2cc3c(cc2n1CC(=O)NCc1ccc(F)cc1)OCCO3", "values": [{"measurement": "RP-LC retention time", "value": 636, "unit": "s"}]}
{"smiles": "COc1ccc(CNC(=O)NC2CCN(c3ccc(C)c(C)c3)C2=O)cc1", "note": "(stereo unspecified)", "values": [{"measurement": "RP-LC retention time", "value": 793, "unit": "s"}]}
{"smiles": "COc1ccc(C2C(C(=O)NCc3ccccc3OC)c3cc(OC)c(OC)cc3C(=O)N2C)cc1", "note": "(stereo unspecified)", "values": [{"measurement": "RP-LC retention time", "value": 802, "unit": "s"}]}
{"smiles": "O=C(Cn1ccc2ccc(N3CCOCC3)nc21)NCc1ccc2c(c1)OCO2", "values": [{"measurement": "RP-LC retention time", "value": 791, "unit": "s"}]}
{"smiles": "Cc1nc2c(NC(=O)COc3ccc(F)c(F)c3)cccn2n1", "values": [{"measurement": "RP-LC retention time", "value": 818, "unit": "s"}]}
{"smiles": "CCOc1ccc(OCC)c(N2C=C(C#N)S(=O)(=O)c3ccccc32)c1", "values": [{"measurement": "RP-LC retention time", "value": 1000, "unit": "s"}]}
{"smiles": "COc1ccc(CNC(=O)Cc2nnc(-c3ccc4ncccc4c3)o2)c(OC)c1", "values": [{"measurement": "RP-LC retention time", "value": 841, "unit": "s"}]}
{"smiles": "Cc1cc(Cl)ccc1NC(=O)Cn1cccc1-c1nnc(C2CCC2)o1", "values": [{"measurement": "RP-LC retention time", "value": 1040, "unit": "s"}]}
{"smiles": "Cc1nn(-c2ccc(N3CCOCC3)nn2)c(C)c1CCC(=O)N1CCN(c2ccccn2)CC1", "values": [{"measurement": "RP-LC retention time", "value": 578, "unit": "s"}]}
{"smiles": "CC(C)n1cnc2cc(CNC(=O)c3cc(F)ccc3Cl)ccc21", "values": [{"measurement": "RP-LC retention time", "value": 638, "unit": "s"}]}
{"smiles": "Cc1ccc(C)c(N2CCN(c3ncc(S(=O)(=O)c4ccc(Cl)cc4)c(N)n3)CC2)c1", "values": [{"measurement": "RP-LC retention time", "value": 1380, "unit": "s"}]}
{"smiles": "CCN(CC)c1nc2cc(C(=O)OC)ccc2c(=O)n1-c1cccc(F)c1", "values": [{"measurement": "RP-LC retention time", "value": 1120, "unit": "s"}]}
{"smiles": "COc1cc(C2CC(=O)c3cnc(N4CCN(C)CC4)nc3C2)cc(OC)c1OC", "note": "(stereo unspecified)", "values": [{"measurement": "RP-LC retention time", "value": 628, "unit": "s"}]}
{"smiles": "COc1ccc(OC)c(-c2cn3ccn(-c4ccc(Br)cc4)c(=O)c3n2)c1", "values": [{"measurement": "RP-LC retention time", "value": 912, "unit": "s"}]}
{"smiles": "CC(C)(C)NC(=O)CN1C(=O)C2CCCCN2c2ccc(S(=O)(=O)N3CCCCC3)cc21", "note": "(stereo unspecified)", "values": [{"measurement": "RP-LC retention time", "value": 981, "unit": "s"}]}
{"smiles": "CCOC(=O)C1CCN(c2c(S(=O)(=O)c3ccccc3)cnc3ccc(C)cc23)CC1", "values": [{"measurement": "RP-LC retention time", "value": 964, "unit": "s"}]}
{"smiles": "COc1cccc(CNC(=O)c2nnc(-c3ccc(S(=O)(=O)N(C)C)cc3)o2)c1", "values": [{"measurement": "RP-LC retention time", "value": 827, "unit": "s"}]}
{"smiles": "Cc1ccc(Cl)cc1-n1ncc2c(NCCN3CCOCC3)ncnc21", "values": [{"measurement": "RP-LC retention time", "value": 629, "unit": "s"}]}
{"smiles": "CN(C)CCNc1ncnc2c1cnn2-c1cccc(Cl)c1", "values": [{"measurement": "RP-LC retention time", "value": 648, "unit": "s"}]}
{"smiles": "COCC(=O)NC(Cc1ccccc1)c1nc2ccccc2n1Cc1ccccc1F", "note": "(stereo unspecified)", "values": [{"measurement": "RP-LC retention time", "value": 769, "unit": "s"}]}
{"smiles": "NC(=O)c1c([N+](=O)[O-])cc(C(F)(F)F)cc1[N+](=O)[O-]", "values": [{"measurement": "RP-LC retention time", "value": 702, "unit": "s"}]}
{"smiles": "Cc1ccc(NC(=O)N2CCC(n3c(C(F)(F)F)nc4cccnc43)CC2)cc1F", "values": [{"measurement": "RP-LC retention time", "value": 944, "unit": "s"}]}
{"smiles": "CN(CC1(C)CCOCC1)C(=O)Cc1ccccc1Cl", "values": [{"measurement": "RP-LC retention time", "value": 818, "unit": "s"}]}
{"smiles": "Cc1ccc2ncn(C3CCN(S(=O)(=O)c4ccccc4C)CC3)c(=O)c2c1", "values": [{"measurement": "RP-LC retention time", "value": 929, "unit": "s"}]}
{"smiles": "Cc1ccc2c(c1)N(C(=O)Cn1cccc1-c1nc(-c3ccc4c(c3)OCO4)no1)CCO2", "values": [{"measurement": "RP-LC retention time", "value": 1160, "unit": "s"}]}
{"smiles": "O=C(Cn1nc2c(N3CCCCCC3)nccn2c1=O)Nc1ccc(F)cc1", "values": [{"measurement": "RP-LC retention time", "value": 715, "unit": "s"}]}
{"smiles": "CCn1cc(CCNC(=O)c2cncc(Br)c2)c2cccnc21", "values": [{"measurement": "RP-LC retention time", "value": 699, "unit": "s"}]}
{"smiles": "COc1ccc(C)cc1NC(=O)N1CC(c2nc(C(C)C)nn2C)C1", "values": [{"measurement": "RP-LC retention time", "value": 710, "unit": "s"}]}
{"smiles": "COc1ccc(CN2C=C(C(=O)OCc3noc(-c4ccccc4)n3)C(C)=NS2(=O)=O)cc1", "values": [{"measurement": "RP-LC retention time", "value": 1100, "unit": "s"}]}
{"smiles": "COCC1CN(C(=O)c2ccoc2C)CCC1(F)F", "note": "(stereo unspecified)", "values": [{"measurement": "RP-LC retention time", "value": 729, "unit": "s"}]}
{"smiles": "O=C(NCc1cccnc1)N(c1ccccc1)c1ccccc1", "values": [{"measurement": "RP-LC retention time", "value": 578, "unit": "s"}]}
{"smiles": "CCCCn1cc(S(=O)(=O)Nc2ccccc2)c2cccnc21", "values": [{"measurement": "RP-LC retention time", "value": 937, "unit": "s"}]}
{"smiles": "O=[n+]1c2c(n([O-])c3ccccc31)-c1cccc3cccc-2c13", "values": [{"measurement": "RP-LC retention time", "value": 767, "unit": "s"}]}
{"smiles": "Cc1cc(Cl)ccc1S(=O)(=O)N1C[C@@H](F)C[C@H]1C(=O)N1CCCCC1", "values": [{"measurement": "RP-LC retention time", "value": 948, "unit": "s"}]}
{"smiles": "NC(=O)c1ccc(Cl)c2ccccc12", "values": [{"measurement": "RP-LC retention time", "value": 777, "unit": "s"}]}
{"smiles": "Cc1cc(N2CCCC2)n2nc(CN3CCC4(CC3)OCCO4)nc2n1", "values": [{"measurement": "RP-LC retention time", "value": 572, "unit": "s"}]}
